{"source": "patent US11083735B2", "about": "“Methods for treating sleep disorders, sleep disturbances, and related symptoms using aminosterol compositions” (Enterin, Inc., priority 2017, dated 2021)", "key": {"[1]": {"system": "patients with PD and constipation", "experiment": "Phase 2 trial Stage 2 (daily dosing): bowel function, stool related indices", "format": "in vivo, human", "conditions": "for response rate: Stage 2 daily dosing", "description": "(2) Rome-IV Criteria for Constipation (7 criteria, with constipation diagnosis requiring two or more of the following: (i) straining during at least 25% of defecations, (ii) lumpy or hard stools in at least 25% of defecations, (iii) sensation of incomplete evacuation for at least 25% of defecations, (iv) sensation of anorectal obstruction/blockage for at least 25% of defecations; (v) manual maneuvers to facilitate at least 25% of defecations; (vi) fewer than 3 defecations per week; and (vii) loose stools are rarely present without the use of laxatives;\n(3) Constipation—Ease of Evacuation Scale (from 1-7, with 7=incontinent, 4=normal, and 1=manual disimpaction);\n(4) Bristol Stool Chart, which is a patient-friendly means of categorizing stool characteristics (assessment of stool consistency is a validated surrogate of intestinal motility) and Stool Diary;\n(14) Patient Assessment of Constipation Symptoms (PAC-SYM);\n(15) Patient Assessment of Constipation Quality of Life (PAC-QOL);\nIn Stage 2, 34 patients were evaluated.\nThe primary efficacy outcome variable was whether or not a subject was a “success” or “failure”. This is an endpoint based on subject diary entries for the “fixed dose” period prior to the endpoint assessment defined as average complete stool frequency increase by 1 or more over baseline, or 3 or more complete spontaneous stools/week. The subject was deemed a “success” if s/he met one or more of the criteria listed above, otherwise the subject was deemed a “failure”. The primary analysis was based on all subjects with a baseline assessment and an assessment at the end of the “fixed-dose” period and was a comparison of the proportion of successes with 0.10 (the null hypothesis corresponding to no treatment effect).\nThe proportion of subjects for whom the drug was a success was estimated with a binomial point estimate and corresponding 95% confidence interval. A secondary analysis compared the proportions of subjects who are deemed a success at the end of the randomized fixed-dose period between those randomized to the squalamine (ENT-01) arm and those randomized to the placebo arm. A Fisher's exact test was used to compare the proportions of subjects who were deemed a success at the end of randomization period between the two randomized arms."}, "[2]": {"system": "patients with PD and constipation", "experiment": "Phase 2 trial: adverse events, all dosed patients (Stage 1 and 2)", "format": "in vivo, human", "experimental": "Safety and Adverse Event (AE) Profile: Fifty patients were enrolled and 44 were dosed. In Stage 1, 10 patients were dosed, 1 (10%) withdrew prior to completion and 9 (90%) completed dosing. In stage 2, 6 (15%) patients had ≥3 CSBM/week at the end of the run-in period and were excluded, 34 patients were dosed and bowel response was assessable in 31 (91%). Two patients (5.8%) were terminated prior to completion because of recurrent dizziness, and 3 others withdrew during dosing (8.8%): 2 because of diarrhea and 1 because of holiday. Fifteen patients were randomized.\nMost AEs were confined to the GI tract (88% in Stage 1 and 63% in Stage 2). The most common AE was nausea which occurred in 4/10 (40%) patients in Stage 1 and in 18/34 (52.9%) in Stage 2 (Table 6). Diarrhea occurred in 4/10 (40%) patients in Stage 1 and 15/34 (44%) in Stage 2. One patient withdrew because of recurrent diarrhea. Other GI related AEs included abdominal pain 11/44 […], flatulence 3/44 (6.8%), vomiting 3/44 (6.8%), worsening of acid reflux 2/44 (4.5%), and worsening of hemorrhoids 1/44 (2.2%). […] The only other noteworthy AE was dizziness 8/44 (18%). Dizziness was graded as moderate in one patient who was receiving an alpha-adrenergic blocking agent (Terazosin). This patient was withdrawn from the study and recovered spontaneously."}, "[3]": {"system": "patients with PD and constipation", "conditions": "in vivo", "quoted_text": "In Stage 2, 34 patients were evaluated. […] This dose was then maintained (“fixed dose”) for an additional 3-5 days. After the “fixed dose”, these patients were randomly assigned to either continued treatment at that dose or to a matching placebo, for an additional 4-6 days prior to a 2-week wash-out.\nA second cohort of 19 patients received squalamine (ENT-01) escalating from 100 mg/day to a maximum of 250 mg/day without subsequent randomization to squalamine (ENT-01) or placebo. Criteria for dose selection and efficacy were identical to those used in the previous cohort.\nAdverse events were coded using the current version of MedDRA. Severity of AEs were assessed by investigators according to CTCAE (v4.03): Grade 1 is labeled as Mild, Grade 2 as Moderate, and Grade 3 and above as Severe. […] The number (percentage) of subjects who experienced an AE during escalation and fixed dosing periods were summarized by dose level and overall for each stage. The denominator for calculating the percentages were based on the number of subjects ever exposed to each dose and overall."}, "[4]": {"experiment": "Preclinical oral studies in rats (bioavailability, portal blood, tolerability)"}, "[5]": {"system": "Intrinsic primary afferent neurons (IPAN) of the jejunum", "experiment": "IPAN patch clamp, jejunum with intact luminal epithelium", "parameters": "species or system mouse", "conditions": "lumen perfused with 30 μM squalamine; 5.5 before", "experimental": "Squalamine evoked bursts of action potential lasting for 10 to 30 min after application of a brief (20 ms) 50 μL puff of squalamine onto the epithelium.\nTo determine the mechanism by which squalamine stimulated intestinal motility, electrophysiological studies were conducted on single neurons within the colon or jejunum of WT mice, using published methods. Intrinsic primary afferent neurons (IPAN) of the jejunum were patch clamped from the adventitial surface, while the lumen of the jejunum was perfused with either Krebs's buffer or buffer containing 30 μM squalamine. The IPANs are multipolar neurons that receive sensory information from the lumen and then communicate with other divisions within the ENS to influence peristalsis as well as direct information rostrally.\nIn this experiment IPAN excitability was measured by stimulating the neuron with a single standard pulse, and counting the number of subsequent spontaneous discharges."}}}
{"smiles": "CC(C)[C@@H](CC[C@@H](C)[C@H]1CC[C@H]2[C@@H]3[C@H](O)C[C@H]4C[C@@H](NCCCNCCCCN)CC[C@]4(C)[C@H]3CC[C@]12C)OS(=O)(=O)O", "note": "(single isomer, unassigned; ent-01) [ENT-01]", "values": [{"measurement": "Median efficacious dose", "setting": "[1]; Stage 2", "value": 100, "unit": "mg"}, {"measurement": "CSBM, Fixed dose (mean, SD)", "setting": "[1]; Stage 2, Table 12, baseline 1.2 (0.90)", "value": 3.8}, {"measurement": "PAQ-SYM, Fixed dose (Mean, SD)", "setting": "[1]; Stage 2, Table 12, baseline 1.3 (0.45)", "value": 1.1}, {"measurement": "PAQ-QOL, Fixed dose (Mean, SD)", "setting": "[1]; Stage 2, Table 12, baseline 1.4 (0.49)", "value": 1.2}, {"measurement": "Rescue meds, Fixed dose (Mean, SD)", "setting": "[1]; Stage 2, Table 12, baseline 1.8 (1.92)", "value": 0.3}, {"measurement": "SBM, Fixed dose (mean, SD)", "setting": "[1]; Stage 2, Table 12, baseline 2.6 (1.45)", "value": 4.5}, {"measurement": "Consistency, Fixed dose (mean, SD)", "setting": "[1]; Stage 2, Table 12, baseline 2.7 (1.20)", "value": 4.1}, {"measurement": "Ease, Fixed dose (Mean, SD)", "setting": "[1]; Stage 2, Table 12, baseline 3.2 (0.73)", "value": 3.7}, {"measurement": "PAC-SYM, Fixed dose (mean, SD)", "setting": "[1]; Stage 2, dosed patients n = 34, baseline 1.3 (0.45)", "value": "1.1 (0.49)"}, {"measurement": "PAC-QOL total, Fixed dose (mean, SD)", "setting": "[1]; Stage 2, dosed patients n = 34, baseline 1.4 (0.49)", "value": "1.2 (0.59)"}, {"measurement": "CSBM, Fixed dose (mean, SD)", "setting": "[1]; Stage 2, dosed patients n = 34, weekly average, baseline 1.2 (0.90)", "value": "3.8 (2.40)"}, {"measurement": "Suppository use, Fixed dose (mean, SD)", "setting": "[1]; Stage 2, dosed patients n = 34, weekly average, baseline 1.8 (1.92)", "value": "0.3 (0.67)"}, {"measurement": "SBM, Fixed dose (mean, SD)", "setting": "[1]; Stage 2, dosed patients n = 34, weekly average, baseline 2.6 (1.45)", "value": "4.5 (2.21)"}, {"measurement": "Consistency, Fixed dose (mean, SD)", "setting": "[1]; Stage 2, n = 34, Bristol stool scale 1-7, 1 = separate hard lumps, 7 = liquid consistency, baseline 2.7 (1.20)", "value": "4.1 (2.13)"}, {"measurement": "Ease of passage, Fixed dose (mean, SD)", "setting": "[1]; Stage 2, n = 34, Ease of evacuation scale, 1-manual disimpaction, 7 = incontinent, baseline 3.2 (0.73)", "value": "3.7 (1.19)"}, {"measurement": "CSBM, Wash-out (Mean, SD)", "setting": "[1]; Stage 2, wash-out period, baseline 1.2 (0.90)", "value": "1.8 (1.19)"}, {"measurement": "PAQ-SYM, Wash-out (Mean, SD)", "setting": "[1]; Stage 2, wash-out period, baseline 1.3 (0.45)", "value": "1.1 (0.60)"}, {"measurement": "PAQ-QOL, Wash-out (Mean, SD)", "setting": "[1]; Stage 2, wash-out period, baseline 1.4 (0.49)", "value": "1.2 (0.63)"}, {"measurement": "Rescue meds, Wash-out (Mean, SD)", "setting": "[1]; Stage 2, wash-out period, baseline 1.8 (1.92)", "value": "1.0 (1.40)"}, {"measurement": "SBM, Wash-out (Mean, SD)", "setting": "[1]; Stage 2, wash-out period, baseline 2.6 (1.45)", "value": "3.2 (1.80)"}, {"measurement": "Consistency, Wash-out (Mean, SD)", "setting": "[1]; Stage 2, wash-out period, baseline 2.7 (1.20)", "value": "2.8 (1.39)"}, {"measurement": "Ease, Wash-out (Mean, SD)", "setting": "[1]; Stage 2, wash-out period, baseline 3.2 (0.73)", "value": "3.3 (0.81)"}, {"measurement": "response rate", "setting": "[1]; 75 mg", "value": 26, "unit": "%"}, {"measurement": "response rate", "setting": "[1]; 250 mg", "value": 85.3, "unit": "%"}, {"measurement": "Average CSBM/week", "setting": "[1]; at fixed dose, baseline 1.2", "value": 3.8}, {"measurement": "Use of rescue medication", "setting": "[1]; at fixed dose, baseline 1.8/week", "value": "0.3 /week"}, {"measurement": "SBM", "setting": "[1]; at fixed dose, baseline 2.6", "value": 4.5}, {"measurement": "CSBM frequency", "setting": "[1]; beyond the treatment period (wash-out)", "value": "remained significantly above baseline value"}, {"measurement": "Subjective indices of wellbeing (PAC-QOL)", "setting": "[1]; during treatment", "value": "improved"}, {"measurement": "constipation symptoms (PAC-SYM)", "setting": "[1]; during treatment", "value": "improved"}, {"measurement": "CSBM/week", "setting": "[1]; patients later randomized to Placebo (n = 9), Fixed dose period on drug, Baseline 1.6", "value": 3.3}, {"measurement": "dose for a bowel response, mean", "setting": "[1]; patients with baseline constipation of <1 CSBM/week", "value": 192, "unit": "mg"}, {"measurement": "dose for a bowel response, mean", "setting": "[1]; patients with ≥1 CSBM/week at baseline", "value": 120, "unit": "mg"}, {"measurement": "CSBM/week", "setting": "[1]; randomized cohort, Treatment (n = 6), Fixed dose, Baseline 0.8", "value": 3.2}, {"measurement": "CSBM/week", "setting": "[1]; randomized cohort, Treatment (n = 6), Randomized period", "value": 2.4}, {"measurement": "CSBM/week", "setting": "[1]; randomized cohort, Treatment (n = 6), Washout", "value": 0.9}, {"measurement": "Consistency based on the Bristol stool scale, mean", "setting": "[1]; treatment, from 2.7", "value": 4.1}, {"measurement": "ease of passage", "setting": "[1]; treatment, from 3.2", "value": 3.7}, {"measurement": "patients responding", "setting": "[1]; within 75 mg to 250 mg", "value": 85, "unit": "%"}, {"measurement": "worsening of hemorrhoids", "setting": "[2]; 1/44", "value": 2.2, "unit": "%"}, {"measurement": "worsening of acid reflux", "setting": "[2]; 2/44", "value": 4.5, "unit": "%"}, {"measurement": "flatulence", "setting": "[2]; 3/44", "value": 6.8, "unit": "%"}, {"measurement": "vomiting", "setting": "[2]; 3/44", "value": 6.8, "unit": "%"}, {"measurement": "dizziness", "setting": "[2]; 8/44", "value": 18, "unit": "%"}, {"measurement": "abdominal pain", "setting": "[2]; 11/44", "value": 32, "unit": "%"}, {"measurement": "Eye infection, Moderate", "setting": "[3]", "value": "0 n, %"}, {"measurement": "absorption from the intestine", "setting": "[4]; portal blood concentrations following oral dosing of radioactive ENT-01 to rats", "value": "low"}, {"measurement": "tolerability", "setting": "[4]; rats", "value": "well tolerated"}, {"measurement": "oral bioavailability", "setting": "[4]; rats, preclinical studies", "value": "about 0.1%"}]}
{"smiles": "CC(C)[C@@H](CC[C@@H](C)[C@H]1CC[C@H]2[C@@H]3[C@H](O)C[C@H]4C[C@@H](NCCCNCCCCN)CC[C@]4(C)[C@H]3CC[C@]12C)OS(=O)(=O)O", "note": "[squalamine]", "values": [{"measurement": "number of discharges stimulated by a single electrical impulse (IPAN excitability)", "setting": "[5]", "value": 8.8}]}
